{"source": "patent EP4775219A1", "about": "“USE OF VIRUS 3C PROTEASE IN PREVENTION OR TREATMENT OF TUMOR” (Academy of Military Medical Sciences, priority 2023, dated 2025)", "key": {"3C protein in A172 cells": {"target": "3C protein in A172 cells (Enterovirus A71, UniProt B9VUU3)", "sequence (B9VUU3 1549-1731, change not shown)": "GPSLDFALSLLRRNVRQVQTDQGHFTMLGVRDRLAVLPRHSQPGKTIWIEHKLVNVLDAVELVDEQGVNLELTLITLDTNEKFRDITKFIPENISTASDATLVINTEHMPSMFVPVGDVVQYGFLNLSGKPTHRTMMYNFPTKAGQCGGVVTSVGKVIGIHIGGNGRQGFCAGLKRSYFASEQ", "assay": "AG7088 blocking the inhibition of cell viability by EV-3C-mRNA", "assay_type": "cell-based, EV71 or Coxsackievirus A14", "conditions": "inhibition of the decrease in cell viability caused by 3C-mRNA transfection", "experimental": "(§1) Rupintrivir (AG7088) is an effective, selective and irreversible 3C protease inhibitor. U87 MG cells and A172 cells were seeded in white-walled clear-bottom 96-well plates at a density of 1.0×10^4 per well, and cultured at 37°C with 5% CO2 for 24 hours. Subsequently, EV-3C-mRNA was diluted with Opti-MEM to final concentrations of 998.4 ng/ml, 499.2 ng/ml, 249.6 ng/ml, 124.8 ng/ml, 62.4 ng/ml, 31.2 ng/ml, and 15.6 ng/ml, and transfected into cells with Lipo2000 liposomes. Compound AG7088 was serially diluted with 2% cell maintenance medium and then added to the 96-well plates to final concentrations of 10µM, 1µM and 0µM, respectively. After 48h, the supernatant was discarded, and the diluted Cell-Titer Glo® Luminescent Cell Viability assay solution was added. The mixture was shaken for 5min in the dark to lyse the cells, followed by standing for 3min. Finally, the luminescence value of each well was measured using a microplate reader. Cell viability (%) = average value of experimental group/average value of cell control group × 100 [formula]\n(§2) Data analysis: The inhibition rate-concentration curve was fitted to a sigmoidal curve using Origin9.0 software to calculate the half-maximal effective concentration (EC50) of AG7088 against 3C-mRNA. The half-cytotoxic concentration (CC50) of the compound was calculated using the same method."}, "[1]": {"target": "3C protein in U87 MG cells (Enterovirus A71, UniProt B9VUU3)", "sequence (B9VUU3 1549-1731, change not shown)": "as above", "assay_type": "cell-based, EV71 or Coxsackievirus A14", "experimental": "as §1, §2"}, "in vitro [2]": {"assay": "in vitro", "assay_type": "cell-based", "conditions": "human", "experimental": "as §2"}, "in vitro [3]": {"assay": "in vitro", "assay_type": "cell-based", "conditions": "human", "experimental": "as §2", "remark": "listed apart in the source"}}}
{"smiles": "CCOC(=O)/C=C/[C@H](C[C@@H]1CCNC1=O)NC(=O)[C@@H](CC(=O)[C@@H](NC(=O)c1cc(C)on1)C(C)C)Cc1ccc(F)cc1", "note": "[AG7088, Rupintrivir]", "values": [{"measurement": "IC50", "setting": "3C protein in A172 cells", "value": "439 ± 30", "unit": "nM"}, {"measurement": "Viability of U87 cells (%)", "setting": "[1]; AG7088 1µM + EV-3C-mRNA 31.2 ng/ml, 48h", "value": "95.64±2", "unit": "%"}, {"measurement": "IC50", "setting": "[1]; inhibition of the decrease in cell viability caused by 3C-mRNA transfection, U87 MG cells", "value": "1150 ± 190", "unit": "nM"}, {"measurement": "CC50", "setting": "in vitro [2]", "value": "> 100000", "unit": "nM"}, {"measurement": "CC50", "setting": "in vitro [3]", "value": "> 100000", "unit": "nM"}]}
